Assay results as given in patent publication US20240366728A1, “Treatment of Diabetes Mellitus” (Carmot Therapeutics Inc., priority 2023, published 2024).

Key:
[1] = biological target: T1, human GIPR (Homo sapiens, UniProt P48546); assay: receptor internalization (Nano-Glo HiBiT), human GIPR; format: cell-based
T1 sequence (P48546 22-466): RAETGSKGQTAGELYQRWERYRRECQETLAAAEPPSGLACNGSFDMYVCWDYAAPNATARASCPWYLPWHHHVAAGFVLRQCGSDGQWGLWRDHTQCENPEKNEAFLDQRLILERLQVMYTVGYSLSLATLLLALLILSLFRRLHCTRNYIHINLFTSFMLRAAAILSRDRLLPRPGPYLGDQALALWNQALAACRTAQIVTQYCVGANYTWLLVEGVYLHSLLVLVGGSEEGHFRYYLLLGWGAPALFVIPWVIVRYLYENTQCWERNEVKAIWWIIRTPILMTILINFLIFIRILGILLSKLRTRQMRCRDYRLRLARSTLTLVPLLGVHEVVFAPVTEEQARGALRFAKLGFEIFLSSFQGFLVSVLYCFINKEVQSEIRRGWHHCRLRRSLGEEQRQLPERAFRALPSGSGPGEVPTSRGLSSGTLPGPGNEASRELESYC
Description: (§3) GLP-1R and GIPR internalization were measured using Promega's Nano-Glo® HiBit extracellular detection system (Promega Corporation; Madison, WI). Hek293 cells were transiently transfected with HiBiT-tagged hGLP-1R or hGIPR plasmids (Promega Corporation; Madison, WI). Cells were lifted using the TrypLE express enzyme (ThermoFisher Scientific) and plated at 80,000-100,000 cells per well in 96 well plates. Cells were then treated with Nano-Glo HibiT extracellular buffer containing LgBiT protein (1:100), and the Nano-Glo HiBiT extracellular substrate (1:50).
(§4) GLP-1R and GIPR internalization was measured using Promega's Nano-Glo® HiBit extracellular detection system (Promega Corporation; Madison, WI). HEK293 cells were transiently transfected with low quantities of HiBiT-tagged hGLP-1R or hGIPR plasmids (Promega Corporation; Madison, WI). The next day, cells were lifted using TrypLE express enzyme (ThermoFisher Scientific) and plated at 80,000-100,000 cells per well in 96 well plates.

[2] = biological target: T2, mouse GIPR (Mus musculus, UniProt Q0P543); assay: cAMP accumulation (HitHunter cAMP assay), mouse GIPR CHO-K1 cells
T2 sequence (Q0P543 19-460): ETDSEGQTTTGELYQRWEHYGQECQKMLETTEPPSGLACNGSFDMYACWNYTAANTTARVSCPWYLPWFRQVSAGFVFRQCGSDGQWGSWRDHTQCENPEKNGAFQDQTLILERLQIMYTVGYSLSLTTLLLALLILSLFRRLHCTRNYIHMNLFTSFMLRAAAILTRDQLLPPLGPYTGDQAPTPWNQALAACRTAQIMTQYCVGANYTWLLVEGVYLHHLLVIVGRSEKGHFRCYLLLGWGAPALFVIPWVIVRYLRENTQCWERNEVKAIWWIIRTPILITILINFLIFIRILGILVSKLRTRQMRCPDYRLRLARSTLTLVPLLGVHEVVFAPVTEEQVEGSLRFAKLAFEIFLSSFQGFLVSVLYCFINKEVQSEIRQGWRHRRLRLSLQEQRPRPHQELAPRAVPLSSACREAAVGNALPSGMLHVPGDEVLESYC

[3] = biological target: T2, mouse GIPR; assay: β-arrestin-2 recruitment (NanoBiT), mouse GIPR; format: cell-based
Description: (§1) To measure GLP-1R and GIPR-mediated β-arrestin recruitment, we utilized Promega's NanoBiT® technology or NanoLuc® Binary Technology. The NanoLuc luciferase is split into two subunits, called LgBiT and SmBIT, which are expressed in HEK293 cells as fusion proteins at the C-terminus of GLP-IR or GIPR and the N-terminus of β-arrestin-2. […] The next day, the media was removed and replaced with […] 1:100 dilution of Nano-Glo® Live Cell Substrate in Opti-MEM™ and equilibrated to room temperature for ten minutes. Background luminescence was measured before 10 nL compound was added using an ECHO Acoustic Liquid Handler.
(§2) To measure GLP-1R and GIPR-mediated β-arrestin recruitment, Promega's NanoBiT® technology or NanoLuc® Binary Technology were utilized. Both allow for the detection and quantification of protein: protein interactions in live cells (Samms et al., Trends Endocrinol Metab 31:410-21). The NanoLuc luciferase is split into two subunits, called LgBiT and SmBIT, which are expressed in HEK293 cells as fusion proteins at the C-terminus of GLP-1R or GIPR and the N-terminus of β-arrestin-2, respectively. […] The next day, media was removed and replaced with 10 μL 1:100 dilution of Nano-Glo® Live Cell Substrate in Optimem and equilibrated to room temperature for ten minutes. Background luminescence was measured before 10 nL compound was added using an ECHO Acoustic Liquid Handler. Luminescence was measured at 1.5-minute intervals for 30 minutes.

[4] = biological target: human GLP-1R (Homo sapiens, UniProt P43220); assay: receptor internalization (Nano-Glo HiBiT), human GLP-1R; format: cell-based; design: host or cells: HEK293
Description: as §3, §4

[5] = biological target: T3, mouse GLP-1R (Mus musculus, UniProt O35659); assay: cAMP accumulation (HitHunter cAMP assay), mouse GLP-1R U2OS cells
T3 sequence (O35659 22-463): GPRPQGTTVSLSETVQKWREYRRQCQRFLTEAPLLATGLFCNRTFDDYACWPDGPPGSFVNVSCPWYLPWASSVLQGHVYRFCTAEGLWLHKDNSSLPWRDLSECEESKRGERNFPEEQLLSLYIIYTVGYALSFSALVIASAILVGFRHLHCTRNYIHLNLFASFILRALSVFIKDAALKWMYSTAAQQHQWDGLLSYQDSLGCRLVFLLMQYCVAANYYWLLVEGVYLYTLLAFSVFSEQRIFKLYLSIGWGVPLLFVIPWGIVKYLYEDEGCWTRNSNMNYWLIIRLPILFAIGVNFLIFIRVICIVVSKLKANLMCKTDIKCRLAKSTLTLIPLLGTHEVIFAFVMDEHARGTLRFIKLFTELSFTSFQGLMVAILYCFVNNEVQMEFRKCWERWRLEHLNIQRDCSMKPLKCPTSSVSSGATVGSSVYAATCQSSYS

[6] = biological target: T3, mouse GLP-1R; assay: β-arrestin-2 recruitment (NanoBiT), mouse GLP-1R; format: cell-based
Description: as §1, §2

[7] = in vivo; settings: male, CD-1, mouse, sc
Description: Blood was kept on ice until centrifuged at 4600 rpm for five minutes at 4° C. Plasma was stored at −80° C. until analysis. Compounds were extracted from plasma and quantified against a standard curve using an AB Sciex 7500+LC-MS/MS system (FIG. 5).

Sequence of human GLP-1R (P43220 24-463): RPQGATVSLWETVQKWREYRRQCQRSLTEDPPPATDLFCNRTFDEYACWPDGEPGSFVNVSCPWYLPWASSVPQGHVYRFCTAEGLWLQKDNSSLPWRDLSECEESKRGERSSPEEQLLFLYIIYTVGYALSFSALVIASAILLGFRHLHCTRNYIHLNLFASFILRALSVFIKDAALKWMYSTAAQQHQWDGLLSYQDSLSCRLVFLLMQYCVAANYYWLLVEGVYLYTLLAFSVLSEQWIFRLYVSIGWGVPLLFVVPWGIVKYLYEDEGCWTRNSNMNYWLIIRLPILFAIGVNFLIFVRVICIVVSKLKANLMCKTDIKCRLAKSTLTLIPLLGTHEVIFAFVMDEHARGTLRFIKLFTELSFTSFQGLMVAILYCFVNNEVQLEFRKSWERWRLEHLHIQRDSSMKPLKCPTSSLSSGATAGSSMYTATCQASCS

Row | Structure (SMILES) | human GIPR surface expression (in words) [1] | agonist type for cAMP accumulation at mouse GIPR (in words) [2] | times lower potency than GIP ([2]; cAMP, mouse GIPR) | native ligand mediated recruitment of β-arrestin-2 at GIPR (in words) ([3]; antagonist mode vs GIP) | recruitment of β-arrestin-2 to mouse GIPR ([3]; vs GIP) | GLP-1R expression after two hours of exposure (in words) [4] | agonist type for cAMP accumulation at mouse GLP-1R (in words) [5] | times less potent than Liraglutide ([5]; cAMP, mouse GLP-1R) | times less potent than native ligand GLP-1 ([5]; cAMP, mouse GLP-1R) | recruitment of β-arrestin-2 to mouse GLP-1R [6] | native ligand mediated recruitment of β-arrestin-2 at GLP-1R (in words) ([6]; antagonist mode vs GLP-1) | Emax ([1]; Table 17, read-out: hGIPR Internalization % Emax) | Emax ([2]; CHO-K1, read-out: mGIPR cAMP (-alb) % Emax) | Emax ([3]; read-out: mGIPR β-arrestin-2 % Emax, Table 17) | Emax ([4]; Table 17, read-out: hGLP-1R Internalization % Emax) | Emax ([5]; U2OS, read-out: mGLP-1R cAMP (-alb) % Emax) | EC50 ([6]; Table 17, read-out: mGLP-1R β-arrestin-2 EC50) | Emax ([6]; read-out: mGLP-1R β-arrestin-2 % Emax, Table 17) | AUC(0-inf) [7] | half-life [7]
1 | CCCCCCCCCCCCCCCC(=O)N[C@@H](CCC(=O)NCCCC[C@H](NC(=O)[C@H](CO)NC(=O)[C@@H]1CCCN1C(=O)[C@@H]1CCCN1C(=O)[C@@H]1CCCN1C(=O)[C@H](C)NC(=O)CNC(=O)[C@H](CO)NC(=O)[C@H](CO)NC(=O)[C@@H]1CCCN1C(=O)CNC(=O)CNC(=O)[C@H](C)NC(=O)[C@H](CC(C)C)NC(=O)[C@H](CC(C)C)NC(=O)[C@H](Cc1c[nH]c2ccccc12)NC(=O)[C@H](CC(N)=O)NC(=O)[C@@H](NC(=O)[C@H](Cc1ccccc1)NC(=O)[C@H](CCC(=O)O)NC(=O)C(C)(C)NC(=O)[C@H](C)NC(=O)[C@H](C)NC(=O)[C@H](CCC(N)=O)NC(=O)[C@H](CCCCN)NC(=O)[C@H](CC(=O)O)NC(=O)[C@H](CC(C)C)NC(=O)[C@H](Cc1ccc(O)cc1)NC(=O)[C@@H](NC(=O)[C@H](CO)NC(=O)[C@H](Cc1ccc(O)cc1)NC(=O)[C@H](CC(=O)O)NC(=O)[C@H](CO)NC(=O)[C@@H](NC(=O)[C@H](Cc1ccccc1)NC(=O)[C@@H](NC(=O)CNC(=O)[C@H](CCC(=O)O)NC(=O)CSCC(=O)NCCN1C(=O)CSC1=O)[C@@H](C)O)[C@@H](C)O)[C@@H](C)CC)C(C)C)C(N)=O)C(=O)O [CT-859] | stimulating greater surface expression than vehicle | partial agonist | 48 times | inhibited | < 5% | higher versus vehicle-treated cells | full agonist | 12 times | 113 times | < 5% | inhibited |  |  |  |  |  |  |  |  | 
2 | CCCCCCCCCCCCCCCC(=O)N[C@@H](CCC(=O)NCCCC[C@H](NC(=O)[C@H](CO)NC(=O)[C@@H]1CCCN1C(=O)[C@@H]1CCCN1C(=O)[C@@H]1CCCN1C(=O)[C@H](C)NC(=O)CNC(=O)[C@H](CO)NC(=O)[C@H](CO)NC(=O)[C@@H]1CCCN1C(=O)CNC(=O)CNC(=O)[C@H](C)NC(=O)[C@H](CC(C)C)NC(=O)[C@H](CC(C)C)NC(=O)[C@H](Cc1c[nH]c2ccccc12)NC(=O)[C@H](CC(N)=O)NC(=O)[C@@H](NC(=O)[C@H](Cc1ccccc1)NC(=O)[C@H](CCC(=O)O)NC(=O)C(C)(C)NC(=O)[C@H](C)NC(=O)[C@H](C)NC(=O)[C@H](CCC(N)=O)NC(=O)[C@H](CCCCN)NC(=O)[C@H](CC(=O)O)NC(=O)[C@H](CC(C)C)NC(=O)[C@H](Cc1ccc(O)cc1)NC(=O)[C@@H](NC(=O)[C@H](CO)NC(=O)[C@H](Cc1ccc(O)cc1)NC(=O)[C@H](CC(=O)O)NC(=O)[C@H](CO)NC(=O)[C@@H](NC(=O)[C@H](Cc1ccccc1)NC(=O)[C@@H](NC(=O)CNC(=O)[C@H](CCC(=O)O)NC(=O)CSCC(=O)NCCN1CCCCC1=O)[C@@H](C)O)[C@@H](C)O)[C@@H](C)CC)C(C)C)C(N)=O)C(=O)O [CT-868] |  |  |  |  |  |  |  |  |  |  |  | -11% | 36% | -1.92% | -13% | 95% | 21 nM | 4.69% | 7.92 µM·h | 7 h
